Source: article PMC6099747, “New Tetrahydroisoquinoline Derivatives Overcome Pgp Activity in Brain-Blood Barrier and Glioblastoma Multiforme in Vitro” (Molecules : A Journal of Synthetic Chemistry and Natural …, 2018)
Read-outs that look alike come from different tables or passages of the source.

How the values were obtained:
Pgp [1] = biological target: T1, Pgp (Homo sapiens, UniProt P08183); design: method as in PMID 27336199, PMID 26797828; conditions: cited from earlier work
T1 construct: expressed in transfected cells; host or cells: MDCK (Madin-Darby Canine Kidney) cells, gift of Dr. Maria Alessandra Contino, University of Bari

Caco-2 cells monolayer = test system: Caco-2 cells monolayer; design: method as in PMID 27336199, PMID 26797828; conditions: cited from earlier work
MRP1 = biological target: T2, MRP1 (Homo sapiens, UniProt P33527); assay: Doxorubicin transport across MRP1-MDCK monolayer; type: cell-based; conditions: 1 nM compound 24 h, 5 μM doxorubicin last 3 h
T2 construct: expressed in transfected cells; host or cells: MDCK (Madin-Darby Canine Kidney) cells, gift of Dr. Maria Alessandra Contino, University of Bari
Procedure: (§1) MDCK, Pgp-MDCK, MRP1-MDCK and BCRP-MDCK cells were a kind gift of Dr. Maria Alessandra Contino (Department of Pharmacy, University of Bari, Italy). Culture and seeding conditions for doxorubicin transport assay were carried out as reported in [37].
(§2) Supplementary Figure S3. Effects of Pgp ligands on doxorubicin transport in Pgp-MDCK,
(§3) MRP1-MDCK and BCRP-MDCK cells
(§4) A. MDCK, Pgp-MDCK, MRP1-MDCK, BCRP-MDCK cells were lysed and immunoblotted with
(§5) h. When indicated, 50 μM verapamil (ver), an inhibitor of Pgp, 25 μM MK571, an inhibitor of […]

Pgp [2] = biological target: T1, Pgp; conditions: Pgp activity, calcein-AM transport; cited from earlier work
hCMEC/D3 cells = assay: Transendothelial electrical resistance (TEER) of BBB monolayer; type: cell-based, human; conditions: 24 h
Pgp [3] = biological target: T1, Pgp; assay: Doxorubicin transport across Pgp-MDCK monolayer; type: cell-based; conditions: 1 nM compound 24 h, 5 μM doxorubicin last 3 h
Procedure: as §1, §2, §3
A. MDCK, Pgp-MDCK, MRP1-MDCK, BCRP-MDCK cells were lysed and immunoblotted with […]

BCRP = biological target: T3, BCRP (Homo sapiens, UniProt Q9UNQ0); assay: Doxorubicin transport across BCRP-MDCK monolayer; type: cell-based; conditions: 1 nM compound 24 h, 5 μM doxorubicin last 3 h
T3 construct: expressed in transfected cells; host or cells: MDCK (Madin-Darby Canine Kidney) cells, gift of Dr. Maria Alessandra Contino, University of Bari
T3 sequence (Q9UNQ0 1-655): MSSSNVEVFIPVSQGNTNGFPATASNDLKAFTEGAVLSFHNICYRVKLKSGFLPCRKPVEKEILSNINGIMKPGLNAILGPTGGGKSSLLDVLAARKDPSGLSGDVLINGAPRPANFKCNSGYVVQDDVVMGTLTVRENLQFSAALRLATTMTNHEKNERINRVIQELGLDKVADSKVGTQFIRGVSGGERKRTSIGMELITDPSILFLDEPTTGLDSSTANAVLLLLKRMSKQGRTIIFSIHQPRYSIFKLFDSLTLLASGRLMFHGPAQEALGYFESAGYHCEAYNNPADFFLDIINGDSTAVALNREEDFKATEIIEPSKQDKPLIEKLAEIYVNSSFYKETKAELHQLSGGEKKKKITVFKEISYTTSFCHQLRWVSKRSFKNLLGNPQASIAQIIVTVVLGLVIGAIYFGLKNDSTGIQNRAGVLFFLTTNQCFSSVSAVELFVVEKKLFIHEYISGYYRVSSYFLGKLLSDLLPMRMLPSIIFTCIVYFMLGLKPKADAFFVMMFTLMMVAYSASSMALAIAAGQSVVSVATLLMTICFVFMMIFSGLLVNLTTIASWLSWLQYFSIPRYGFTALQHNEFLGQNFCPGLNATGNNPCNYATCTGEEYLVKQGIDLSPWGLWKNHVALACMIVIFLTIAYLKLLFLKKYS
Procedure: as §1, §2, §3, §4, §5

hCMEC/D3 cells monolayer [4] = assay: Doxorubicin delivery across BBB monolayer (Transwell); conditions: 25 μM MK571 or 5 μM fumitremorgin C alone, 5 μM doxorubicin 3 h
Procedure: Cells were seeded at 50,000/cm² density, and grown for 7 days up to confluence in 6-well Transwell devices (0.4 μm diameter pores-size, Transwell insert surface: 4.67 cm^2; Corning Life Sciences, Chorges, France for transport assays) or 24-well Transwell devices (0.4 μm diameter pores-size, Transwell insert surface: 0.33 cm^2; Corning Life Sciences, for TEER measurements), to allow the formation of a competent BBB. […] TEER was measured using a Voltohmetro Millicell-ERS (Millipore, Bedford, MA, USA), according to the manufacturer’s instructions. […] This value was subtracted from each value obtained in the presence of the cells.
(A) Human cellular microvascular endothelial cells/D3 clone hCMEC/D3 cells were grown in the upper insert of Transwell devices for 7 days. […] Cell viability was measured by a chemiluminescence-based assay, in triplicates. Data are presented as means ± SD (n = 4). […] (B) hCMEC/D3 cells were grown in the upper insert of Transwell devices for 7 days. […] Cells were lysed and immunoblotted with the indicated antibodies. β-Tubulin level was used as control of equal protein loading. […] The amount of doxorubicin in the medium of the lower chamber was measured spectrofluorimetrically, in duplicates. […]
doxorubicin in the medium of the lower chamber was measured spectrofluorimetrically, in […]

[5] = test system: primary human GB adherent cells (AC); assay: Cytotoxicity (LDH release, caspase 3 activity, cell viability) in glioblastoma adherent cells; type: cell-based; conditions: 5 µM doxorubicin alone
Procedure: Cell viability was evaluated by ATPLite kit (PerkinElmer), as per manufacturer’s instructions. The results were expressed as percentage of viable cells in each experimental condition versus untreated cells (considered 100%).
The release of LDH in cell supernatant was measured as reported in [16], using a Synergy HT microplate reader. Both intracellular and extracellular enzyme activities were expressed as μmol NADH oxidized/min/dish, then extracellular LDH activity was calculated as percentage of the total LDH activity. For cytotoxicity assays in co-cultures, 5 μM doxorubicin, alone or in the presence of compounds, was added to the upper chamber of Transwell inserts. After 24 h, both cell culture medium and GB cells from the lower chamber were collected, and checked for the activity of LDH, as described above.
The activity of caspase 3, taken as an index of apoptosis, was measured by incubating 20 µg of cell lysates, collected from GB cells or GB cells growing under BBB monolayer, as reported above, with the fluorogenic substrate of caspase 3 DEVD-7-amino-4-methylcumarine (DEVD-AMC), as reported in [11]. Results were expressed as nmoles AMC/mg proteins, using a calibration curve previously set.
Figure 3 Effects of Pgp ligands on doxorubicin cytotoxicity in glioblastoma cells. Adherent cells (AC) or neurospheres (NS) from glioblastoma samples were grown for 24 h (panel A–B) or 48 h (panel C) in fresh medium (ctrl) or in the presence of 1 nM of compounds 1–6. When indicated, 5 µM doxorubicin (doxo) was co-incubated. (A) The cell culture supernatant was checked spectrophotometrically for the extracellular activity of LDH, in duplicates. Pooled data of patients 1-3 are presented as means ± SD (n = 3). Vs. AC ctrl: * p < 0.001; vs. NS ctrl: ° p < 0.001; vs. NS doxo: ^# p < 0.001. (B) The activity of caspase 3 was measured fluorimetrically, in duplicates. Data are means ± SD (n = 3). Pooled data of patients 1–3 are presented as means ± SD (n = 3). Vs. AC ctrl: * p < 0.001; vs. NS ctrl: ° p < 0.01; vs. NS doxo: ^# p < 0.05. […] Pooled data of patients 1-3 are presented as means ± SD (n = 3). […]

hCMEC/D3 cells monolayer [6] = assay: Permeability of dextran-FITC, sucrose, inulin and lucifer yellow across BBB monolayer

T1 sequence (P08183 whole entry): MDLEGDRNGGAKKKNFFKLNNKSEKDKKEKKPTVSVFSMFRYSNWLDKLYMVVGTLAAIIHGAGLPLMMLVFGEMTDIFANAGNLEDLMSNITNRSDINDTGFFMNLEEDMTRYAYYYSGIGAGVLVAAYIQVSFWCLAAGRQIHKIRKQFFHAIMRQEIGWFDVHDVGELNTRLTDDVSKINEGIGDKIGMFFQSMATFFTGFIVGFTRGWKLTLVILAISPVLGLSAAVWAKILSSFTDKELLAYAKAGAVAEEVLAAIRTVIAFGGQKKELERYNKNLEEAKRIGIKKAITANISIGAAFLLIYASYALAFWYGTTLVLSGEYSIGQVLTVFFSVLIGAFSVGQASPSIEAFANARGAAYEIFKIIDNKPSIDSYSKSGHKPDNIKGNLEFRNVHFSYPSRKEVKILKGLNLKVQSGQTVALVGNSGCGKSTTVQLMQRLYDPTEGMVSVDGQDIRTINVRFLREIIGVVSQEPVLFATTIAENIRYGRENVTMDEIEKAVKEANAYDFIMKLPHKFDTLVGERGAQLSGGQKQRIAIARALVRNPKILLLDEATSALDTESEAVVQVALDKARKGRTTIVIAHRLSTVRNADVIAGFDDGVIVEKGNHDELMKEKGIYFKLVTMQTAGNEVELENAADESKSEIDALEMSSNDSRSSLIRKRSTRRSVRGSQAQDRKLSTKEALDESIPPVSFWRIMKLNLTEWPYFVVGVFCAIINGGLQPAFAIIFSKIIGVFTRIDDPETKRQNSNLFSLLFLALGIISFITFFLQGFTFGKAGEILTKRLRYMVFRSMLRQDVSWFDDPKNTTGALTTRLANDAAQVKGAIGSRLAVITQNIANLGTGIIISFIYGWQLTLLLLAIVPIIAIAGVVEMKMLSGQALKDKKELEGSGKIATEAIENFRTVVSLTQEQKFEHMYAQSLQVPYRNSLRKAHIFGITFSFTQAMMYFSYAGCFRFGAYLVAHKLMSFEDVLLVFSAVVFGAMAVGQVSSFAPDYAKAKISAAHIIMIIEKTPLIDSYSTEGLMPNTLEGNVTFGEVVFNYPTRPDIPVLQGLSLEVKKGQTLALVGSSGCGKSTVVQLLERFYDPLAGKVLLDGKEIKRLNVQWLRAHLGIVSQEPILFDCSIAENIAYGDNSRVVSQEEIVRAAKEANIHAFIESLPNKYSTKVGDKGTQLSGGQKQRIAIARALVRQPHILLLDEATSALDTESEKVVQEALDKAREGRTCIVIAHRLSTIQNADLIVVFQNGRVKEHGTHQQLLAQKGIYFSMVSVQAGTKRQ
T2 sequence (P33527 whole entry): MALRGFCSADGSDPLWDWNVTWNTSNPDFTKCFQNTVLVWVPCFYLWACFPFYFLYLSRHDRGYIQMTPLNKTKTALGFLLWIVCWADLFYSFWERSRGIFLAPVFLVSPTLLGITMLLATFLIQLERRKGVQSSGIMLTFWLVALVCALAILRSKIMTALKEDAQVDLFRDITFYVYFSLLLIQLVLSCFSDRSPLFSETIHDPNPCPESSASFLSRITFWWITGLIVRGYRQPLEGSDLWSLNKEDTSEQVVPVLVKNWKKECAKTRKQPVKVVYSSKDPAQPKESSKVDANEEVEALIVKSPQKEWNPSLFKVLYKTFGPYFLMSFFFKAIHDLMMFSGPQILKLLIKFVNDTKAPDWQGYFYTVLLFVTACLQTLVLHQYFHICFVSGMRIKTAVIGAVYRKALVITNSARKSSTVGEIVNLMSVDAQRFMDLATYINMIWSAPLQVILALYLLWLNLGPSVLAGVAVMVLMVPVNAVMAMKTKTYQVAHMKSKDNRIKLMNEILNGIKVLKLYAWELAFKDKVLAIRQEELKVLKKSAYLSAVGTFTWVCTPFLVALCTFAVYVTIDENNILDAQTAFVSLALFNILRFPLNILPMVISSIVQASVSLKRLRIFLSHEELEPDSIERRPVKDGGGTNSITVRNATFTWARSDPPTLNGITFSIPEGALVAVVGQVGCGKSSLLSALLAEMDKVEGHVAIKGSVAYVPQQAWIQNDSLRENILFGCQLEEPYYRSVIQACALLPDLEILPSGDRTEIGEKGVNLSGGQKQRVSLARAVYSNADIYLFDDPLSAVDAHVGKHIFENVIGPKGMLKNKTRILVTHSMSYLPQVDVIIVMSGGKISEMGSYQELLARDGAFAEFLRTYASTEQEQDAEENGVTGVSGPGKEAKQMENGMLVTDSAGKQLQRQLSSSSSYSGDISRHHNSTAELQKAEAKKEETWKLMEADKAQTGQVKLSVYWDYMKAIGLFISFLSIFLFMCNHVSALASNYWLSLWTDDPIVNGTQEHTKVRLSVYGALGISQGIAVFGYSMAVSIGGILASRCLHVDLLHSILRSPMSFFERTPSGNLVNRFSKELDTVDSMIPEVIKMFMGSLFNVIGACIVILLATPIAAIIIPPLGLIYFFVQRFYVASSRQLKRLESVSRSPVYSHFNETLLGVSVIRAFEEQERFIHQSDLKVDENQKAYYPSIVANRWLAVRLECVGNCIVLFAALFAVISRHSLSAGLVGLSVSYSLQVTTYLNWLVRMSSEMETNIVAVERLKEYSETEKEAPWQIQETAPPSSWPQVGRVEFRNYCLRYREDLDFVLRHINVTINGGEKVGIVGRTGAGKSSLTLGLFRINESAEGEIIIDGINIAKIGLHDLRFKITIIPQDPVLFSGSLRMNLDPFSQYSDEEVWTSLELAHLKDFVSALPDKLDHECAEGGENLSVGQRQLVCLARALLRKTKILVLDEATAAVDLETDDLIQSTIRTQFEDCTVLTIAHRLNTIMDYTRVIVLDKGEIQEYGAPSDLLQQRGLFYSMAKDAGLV

Compound: COc1cc2c(cc1OC)CN(Cc1ccc(-c3ccc(O)cc3)cc1)CC2 [7 (MC70), 4′-(6,7-Dimethoxy-3,4-dihydro-1H-isoquinolin-2-ylmethyl)biphenyl-4-ol]
- ATP depletion (Pgp [1]): does not induce ATP depletion
- apparent permeability ratio (Caco-2 cells monolayer): < 2

Compound: CCCCOc1ccc(-c2ccc(CN3CCc4cc(OC)c(OC)cc4C3)cc2)cc1 [Compound 6]
- doxorubicin delivery across MRP1-MDCK cells (MRP1): strongly reduced
- EC50 (Pgp [2]): 5.2 nM
- TEER (Ω cm^2) Compound 1 nM (hCMEC/D3 cells; 1 nM compound): 33 ± 2 Ω cm^2
- TEER (Ω cm^2) Compound 100 nM (hCMEC/D3 cells; 100 nM compound): 31 ± 4 Ω cm^2
- doxorubicin permeability across Pgp-MDCK monolayer (Pgp [3]): did not change
- doxorubicin delivery across BCRP-MDCK cells (BCRP): strongly reduced

Compound: CN(C)C(=O)CCSC(SCCC(=O)O)c1cccc(/C=C/c2ccc3ccc(Cl)cc3n2)c1 (stereo not drawn) [MK571]
- doxorubicin delivery across hCMEC/D3 cells monolayer (hCMEC/D3 cells monolayer [4]): increased

Compound: COc1cccc2c1C(=O)c1c(O)c3c(c(O)c1C2=O)C[C@@](O)(C(=O)CO)C[C@@H]3O[C@H]1C[C@H](N)[C@H](O)[C@H](C)O1 [doxorubicin]
- LDH release ([5]; 24 h): increased
- caspase 3 activity ([5]; 24 h): increased
- cell viability ([5]; 48 h): decreased

Compound: COc1ccc2c3c([nH]c2c1)[C@H](C=C(C)C)N1C(=O)[C@@H]2CCCN2C(=O)[C@@H]1C3 [fumitremorgin C]
- doxorubicin delivery across hCMEC/D3 cells monolayer (hCMEC/D3 cells monolayer [4]): increased

Compound: [^14C]-inulin
- permeability coefficient across BBB monolayer (hCMEC/D3 cells monolayer [6]; hCMEC/D3 monolayer without compounds, 3 h): 0.45 ± 0.07 × 10^−3 cm·min^−1

Compound: lucifer yellow
- permeability coefficient across BBB monolayer (hCMEC/D3 cells monolayer [6]): 0.43 ± 0.11 × 10^−3 cm·min^−1
